Assay results as given in paper doi:10.1101/2020.06.11.145995v1 (biorxiv, 2020).
Read-outs that look alike come from different tables or passages of the source.

How the values were obtained:
Experiment in all cases: biochemical
DCAMKL1 = DCAMKL1 (Homo sapiens, UniProt O15075)
DLK = DLK (Homo sapiens, UniProt Q12852)
FLT3 = FLT3 (Homo sapiens, UniProt P36888)
MRCKA = MRCKA (Homo sapiens, UniProt Q5VT25)
MAP3K15 = MAP3K15 (Homo sapiens, UniProt Q6ZN16)
KIT(L576P) = KIT(L576P) (Homo sapiens, UniProt P10721, L576P)
CDK3 = CDK3 (Homo sapiens, UniProt Q00526)
ACVRL1 = ACVRL1 (Homo sapiens, UniProt P37023)
ABL2 = ABL2 (Homo sapiens, UniProt P42684)
CDKL2 = CDKL2 (Homo sapiens, UniProt Q92772)
MARK1 = MARK1 (Homo sapiens, UniProt Q9P0L2)
FLT3(R834Q) = FLT3(R834Q) (Homo sapiens, UniProt P36888, R834Q)
MST4 = MST4 (Homo sapiens, UniProt Q9P289)
BRAF = BRAF (Homo sapiens, UniProt P15056)
FLT3(ITD) = FLT3(ITD) (Homo sapiens, UniProt P36888, ITD)
CHEK2 = CHEK2 (Homo sapiens, UniProt O96017)
BMX = BMX (Homo sapiens, UniProt P51813)
KIT(A829P) = KIT(A829P) (Homo sapiens, UniProt P10721, A829P)
CAMK1G = CAMK1G (Homo sapiens, UniProt Q96NX5)
LOK = LOK (Homo sapiens, UniProt O94804)
CDC2L1 = CDC2L1 (Homo sapiens, UniProt P21127)
DDR1 = DDR1 (Homo sapiens, UniProt Q08345)
KIT(V559D) = KIT(V559D) (Homo sapiens, UniProt P10721, V559D)
ADCK4 = ADCK4 (Homo sapiens, UniProt Q96D53)
CDK4-cyclinD3 = CDK4-cyclinD3 (Homo sapiens, UniProt P11802)
CAMKK1 = CAMKK1 (Homo sapiens, UniProt Q8N5S9)
MET(M1250T) = MET(M1250T) (Homo sapiens, UniProt P08581, M1250T)
BRSK2 = BRSK2 (Homo sapiens, UniProt Q8IWQ3)
MKNK1 = MKNK1 (Homo sapiens, UniProt Q9BUB5)
[1] = read-out: CPT-1-70-1 (1uM) % control
[2] = read-out: HYJ-2-002-1 (1uM) % control

DLK, sequence (Q12852 whole entry): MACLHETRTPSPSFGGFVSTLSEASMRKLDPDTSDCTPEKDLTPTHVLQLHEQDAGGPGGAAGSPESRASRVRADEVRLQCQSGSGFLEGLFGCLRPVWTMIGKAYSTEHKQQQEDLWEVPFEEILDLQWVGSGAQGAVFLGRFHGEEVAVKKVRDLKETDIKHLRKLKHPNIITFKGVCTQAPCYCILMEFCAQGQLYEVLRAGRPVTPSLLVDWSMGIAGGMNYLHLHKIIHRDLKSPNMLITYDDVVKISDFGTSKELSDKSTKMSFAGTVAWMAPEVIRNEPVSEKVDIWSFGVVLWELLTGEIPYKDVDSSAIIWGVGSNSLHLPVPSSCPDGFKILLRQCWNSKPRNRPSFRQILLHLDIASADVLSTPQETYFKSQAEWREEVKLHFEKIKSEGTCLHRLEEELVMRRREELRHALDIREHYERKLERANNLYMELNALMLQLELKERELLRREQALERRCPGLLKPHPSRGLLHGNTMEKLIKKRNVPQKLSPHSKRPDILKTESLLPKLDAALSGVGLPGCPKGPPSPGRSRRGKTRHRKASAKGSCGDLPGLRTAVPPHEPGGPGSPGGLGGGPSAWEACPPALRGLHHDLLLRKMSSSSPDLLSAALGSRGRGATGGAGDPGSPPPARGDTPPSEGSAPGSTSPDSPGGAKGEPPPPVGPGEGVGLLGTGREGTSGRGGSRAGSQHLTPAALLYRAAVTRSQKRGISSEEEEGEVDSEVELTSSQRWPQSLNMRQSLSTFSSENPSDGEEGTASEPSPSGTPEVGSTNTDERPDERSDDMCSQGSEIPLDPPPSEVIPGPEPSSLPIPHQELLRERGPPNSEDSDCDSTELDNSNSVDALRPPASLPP
MKNK1, sequence (Q9BUB5 whole entry): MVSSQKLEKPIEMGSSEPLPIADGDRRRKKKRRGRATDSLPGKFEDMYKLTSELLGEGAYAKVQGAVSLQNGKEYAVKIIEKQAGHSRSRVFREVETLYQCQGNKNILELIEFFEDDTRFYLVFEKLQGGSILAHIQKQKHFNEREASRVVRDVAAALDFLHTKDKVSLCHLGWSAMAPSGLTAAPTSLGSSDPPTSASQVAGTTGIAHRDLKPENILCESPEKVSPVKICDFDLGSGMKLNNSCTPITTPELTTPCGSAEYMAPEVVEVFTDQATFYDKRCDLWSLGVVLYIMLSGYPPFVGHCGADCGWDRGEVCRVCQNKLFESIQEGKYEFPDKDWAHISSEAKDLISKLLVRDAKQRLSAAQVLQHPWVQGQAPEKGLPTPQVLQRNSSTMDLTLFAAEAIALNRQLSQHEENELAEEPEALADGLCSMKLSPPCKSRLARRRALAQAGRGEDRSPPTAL
CAMKK1, sequence (Q8N5S9 whole entry): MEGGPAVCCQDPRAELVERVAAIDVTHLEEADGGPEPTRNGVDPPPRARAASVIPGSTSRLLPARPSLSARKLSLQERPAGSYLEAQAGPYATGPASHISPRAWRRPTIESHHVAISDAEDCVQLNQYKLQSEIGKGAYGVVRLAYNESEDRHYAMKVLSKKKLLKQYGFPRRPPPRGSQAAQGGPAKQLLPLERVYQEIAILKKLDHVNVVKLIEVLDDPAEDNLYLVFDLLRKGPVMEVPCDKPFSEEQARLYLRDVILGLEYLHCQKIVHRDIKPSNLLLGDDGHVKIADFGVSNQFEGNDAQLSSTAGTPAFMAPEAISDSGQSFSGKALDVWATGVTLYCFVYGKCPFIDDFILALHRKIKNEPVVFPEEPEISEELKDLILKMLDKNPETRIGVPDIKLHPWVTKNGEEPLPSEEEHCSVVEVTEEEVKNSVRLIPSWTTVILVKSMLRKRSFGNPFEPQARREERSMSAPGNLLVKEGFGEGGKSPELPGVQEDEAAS
ACVRL1, sequence (P37023 whole entry): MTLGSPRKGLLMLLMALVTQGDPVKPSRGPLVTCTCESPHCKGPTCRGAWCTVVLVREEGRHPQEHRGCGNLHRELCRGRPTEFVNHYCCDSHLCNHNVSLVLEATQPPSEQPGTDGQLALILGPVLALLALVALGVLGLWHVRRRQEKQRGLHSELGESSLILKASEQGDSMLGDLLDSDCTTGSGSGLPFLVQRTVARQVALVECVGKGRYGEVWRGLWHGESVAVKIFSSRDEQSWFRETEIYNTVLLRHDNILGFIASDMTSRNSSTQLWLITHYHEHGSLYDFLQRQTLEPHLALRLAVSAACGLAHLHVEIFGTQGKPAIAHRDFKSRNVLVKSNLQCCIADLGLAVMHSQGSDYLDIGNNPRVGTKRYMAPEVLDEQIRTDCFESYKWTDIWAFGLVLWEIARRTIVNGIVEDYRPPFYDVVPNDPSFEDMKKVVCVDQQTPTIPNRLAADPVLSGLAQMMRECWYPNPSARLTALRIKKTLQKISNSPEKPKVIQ
KIT(V559D), sequence (P10721 whole entry V559D): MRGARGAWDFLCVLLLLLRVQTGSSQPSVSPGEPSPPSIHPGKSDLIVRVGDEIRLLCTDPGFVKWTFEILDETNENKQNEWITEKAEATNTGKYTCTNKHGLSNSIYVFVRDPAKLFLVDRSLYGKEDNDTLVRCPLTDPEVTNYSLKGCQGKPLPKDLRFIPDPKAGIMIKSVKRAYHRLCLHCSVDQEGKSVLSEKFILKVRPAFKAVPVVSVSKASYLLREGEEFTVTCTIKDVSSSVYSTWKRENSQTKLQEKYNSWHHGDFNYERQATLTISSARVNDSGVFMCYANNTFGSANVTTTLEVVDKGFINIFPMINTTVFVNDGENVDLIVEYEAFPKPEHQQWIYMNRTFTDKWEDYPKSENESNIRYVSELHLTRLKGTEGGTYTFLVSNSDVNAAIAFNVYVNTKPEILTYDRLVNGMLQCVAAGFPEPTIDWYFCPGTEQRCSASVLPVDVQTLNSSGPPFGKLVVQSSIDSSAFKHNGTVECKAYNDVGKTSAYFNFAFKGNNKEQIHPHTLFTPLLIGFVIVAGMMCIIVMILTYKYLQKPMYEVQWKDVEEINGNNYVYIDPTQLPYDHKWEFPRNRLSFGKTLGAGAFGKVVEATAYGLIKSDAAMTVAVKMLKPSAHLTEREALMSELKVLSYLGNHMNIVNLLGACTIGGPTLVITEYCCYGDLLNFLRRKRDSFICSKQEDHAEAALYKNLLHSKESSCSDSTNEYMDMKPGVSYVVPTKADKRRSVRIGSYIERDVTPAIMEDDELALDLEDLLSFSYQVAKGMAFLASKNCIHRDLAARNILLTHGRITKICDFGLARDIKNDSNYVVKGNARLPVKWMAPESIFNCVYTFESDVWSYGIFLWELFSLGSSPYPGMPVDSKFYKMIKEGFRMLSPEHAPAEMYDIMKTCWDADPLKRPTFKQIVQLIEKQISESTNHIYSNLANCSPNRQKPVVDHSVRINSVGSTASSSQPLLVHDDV
BRSK2, sequence (Q8IWQ3 whole entry): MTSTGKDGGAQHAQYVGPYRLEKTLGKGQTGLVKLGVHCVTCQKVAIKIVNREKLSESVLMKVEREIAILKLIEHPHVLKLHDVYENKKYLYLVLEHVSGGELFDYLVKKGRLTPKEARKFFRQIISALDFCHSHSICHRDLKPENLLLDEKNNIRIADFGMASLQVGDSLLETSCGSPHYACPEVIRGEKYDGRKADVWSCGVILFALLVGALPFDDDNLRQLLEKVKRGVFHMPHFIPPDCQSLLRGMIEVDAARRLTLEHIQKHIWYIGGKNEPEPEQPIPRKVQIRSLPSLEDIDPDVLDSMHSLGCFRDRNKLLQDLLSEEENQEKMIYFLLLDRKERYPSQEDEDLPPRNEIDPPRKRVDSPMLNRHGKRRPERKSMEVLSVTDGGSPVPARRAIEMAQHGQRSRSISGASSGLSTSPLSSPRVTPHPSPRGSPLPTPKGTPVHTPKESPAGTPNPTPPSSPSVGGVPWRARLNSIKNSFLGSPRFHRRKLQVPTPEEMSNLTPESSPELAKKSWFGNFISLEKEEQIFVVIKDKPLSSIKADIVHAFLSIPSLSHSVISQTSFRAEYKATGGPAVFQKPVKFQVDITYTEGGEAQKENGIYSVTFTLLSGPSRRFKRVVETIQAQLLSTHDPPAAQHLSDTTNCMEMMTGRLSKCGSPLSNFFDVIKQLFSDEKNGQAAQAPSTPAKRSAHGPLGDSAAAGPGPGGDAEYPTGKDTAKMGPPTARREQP
CDC2L1, sequence (P21127 whole entry): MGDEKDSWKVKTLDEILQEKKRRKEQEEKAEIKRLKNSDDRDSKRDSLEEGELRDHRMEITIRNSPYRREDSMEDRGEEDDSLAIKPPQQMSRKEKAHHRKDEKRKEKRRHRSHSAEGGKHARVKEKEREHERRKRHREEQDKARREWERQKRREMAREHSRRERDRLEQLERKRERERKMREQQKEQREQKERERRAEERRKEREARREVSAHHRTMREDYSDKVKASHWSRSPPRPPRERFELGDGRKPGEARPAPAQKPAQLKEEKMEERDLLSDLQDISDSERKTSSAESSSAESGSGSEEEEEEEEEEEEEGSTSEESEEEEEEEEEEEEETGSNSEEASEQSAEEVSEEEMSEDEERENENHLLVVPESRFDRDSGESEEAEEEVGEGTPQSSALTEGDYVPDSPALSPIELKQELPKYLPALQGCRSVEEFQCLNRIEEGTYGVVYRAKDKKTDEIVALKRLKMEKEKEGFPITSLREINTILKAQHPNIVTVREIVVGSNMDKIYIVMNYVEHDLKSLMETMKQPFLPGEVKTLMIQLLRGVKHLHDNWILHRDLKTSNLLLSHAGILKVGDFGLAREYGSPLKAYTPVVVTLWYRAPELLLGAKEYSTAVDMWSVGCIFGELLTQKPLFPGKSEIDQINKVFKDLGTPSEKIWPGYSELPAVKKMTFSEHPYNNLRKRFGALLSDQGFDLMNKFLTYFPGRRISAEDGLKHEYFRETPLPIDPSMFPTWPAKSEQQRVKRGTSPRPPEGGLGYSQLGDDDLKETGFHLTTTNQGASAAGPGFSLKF
KIT(A829P), sequence (P10721 whole entry A829P): as the sequence (P10721 whole entry V559D) above, with D559V, A829P counted along it
KIT(L576P), sequence (P10721 whole entry L576P): as the sequence (P10721 whole entry V559D) above, with D559V, L576P counted along it

## CN1CCN(c2ccc(Nc3nc(Oc4ccc(NC(=O)CCl)cc4)c4cc[nH]c4n3)cc2)CC1 [CPT1-70-1]
DCAMKL1; [1]
  remaining activity at 1 µM: 100%
DLK; [1]
  remaining activity at 1 µM: 78%
FLT3; [1]
  remaining activity at 1 µM: 3%
MRCKA; [1]
  remaining activity at 1 µM: 100%
MAP3K15; [1]
  remaining activity at 1 µM: 100%
KIT(L576P); [1]
  remaining activity at 1 µM: 8.9%
CDK3; [1]
  remaining activity at 1 µM: 100%
ACVRL1; [1]
  remaining activity at 1 µM: 100%
ABL2; [1]
  remaining activity at 1 µM: 60%
CDKL2; [1]
  remaining activity at 1 µM: 11%
MARK1; [1]
  remaining activity at 1 µM: 2.1%
FLT3(R834Q); [1]
  remaining activity at 1 µM: 51%
MST4; [1]
  remaining activity at 1 µM: 49%
BRAF; [1]
  remaining activity at 1 µM: 87%
FLT3(ITD); [1]
  remaining activity at 1 µM: 1.6%
CHEK2; [1]
  remaining activity at 1 µM: 38%
BMX; [1]
  remaining activity at 1 µM: 9.2%
KIT(A829P); [1]
  remaining activity at 1 µM: 75%
CAMK1G; [1]
  remaining activity at 1 µM: 50%
LOK; [1]
  remaining activity at 1 µM: 100%
CDC2L1; [1]
  remaining activity at 1 µM: 100%
DDR1; [1]
  remaining activity at 1 µM: 79%
KIT(V559D); [1]
  remaining activity at 1 µM: 15%
ADCK4; [1]
  remaining activity at 1 µM: 91%
CDK4-cyclinD3; [1]
  remaining activity at 1 µM: 100%
CAMKK1; [1]
  remaining activity at 1 µM: 84%
MET(M1250T); [1]
  remaining activity at 1 µM: 39%
BRSK2; [1]
  remaining activity at 1 µM: 97%
MKNK1; [1]
  remaining activity at 1 µM: 100%

## CCN1CCN(Cc2ccc(NC(=O)c3ccc(C)c(CCc4cnc5[nH]ccc5c4OC)c3)cc2C(F)(F)F)CC1 [HYJ-2-002-1]
DCAMKL1; [2]
  remaining activity at 1 µM: 100%
DLK; [2]
  remaining activity at 1 µM: 86%
FLT3; [2]
  remaining activity at 1 µM: 0.5%
MRCKA; [2]
  remaining activity at 1 µM: 100%
MAP3K15; [2]
  remaining activity at 1 µM: 100%
KIT(L576P); [2]
  remaining activity at 1 µM: 82%
CDK3; [2]
  remaining activity at 1 µM: 99%
ACVRL1; [2]
  remaining activity at 1 µM: 100%
ABL2; [2]
  remaining activity at 1 µM: 0%
CDKL2; [2]
  remaining activity at 1 µM: 2.3%
MARK1; [2]
  remaining activity at 1 µM: 100%
FLT3(R834Q); [2]
  remaining activity at 1 µM: 44%
MST4; [2]
  remaining activity at 1 µM: 98%
BRAF; [2]
  remaining activity at 1 µM: 3.7%
FLT3(ITD); [2]
  remaining activity at 1 µM: 2.3%
CHEK2; [2]
  remaining activity at 1 µM: 63%
BMX; [2]
  remaining activity at 1 µM: 8.7%
KIT(A829P); [2]
  remaining activity at 1 µM: 61%
CAMK1G; [2]
  remaining activity at 1 µM: 94%
LOK; [2]
  remaining activity at 1 µM: 0.75%
CDC2L1; [2]
  remaining activity at 1 µM: 88%
DDR1; [2]
  remaining activity at 1 µM: 0%
KIT(V559D); [2]
  remaining activity at 1 µM: 0%
ADCK4; [2]
  remaining activity at 1 µM: 100%
CDK4-cyclinD3; [2]
  remaining activity at 1 µM: 100%
CAMKK1; [2]
  remaining activity at 1 µM: 100%
MET(M1250T); [2]
  remaining activity at 1 µM: 61%
BRSK2; [2]
  remaining activity at 1 µM: 91%
MKNK1; [2]
  remaining activity at 1 µM: 84%
